By IC50 is commonly meant the point on the concentration scale where inhibition reaches its midpoint. The term EC50 denotes the concentration at which the effect is half-maximal.

The text below walks through data of article PMC9344964 (Journal of Enzyme Inhibition and Medicinal Chemistry, 2022).

The nature of data set [1]: MTT cytotoxicity assay. In kind it is cell-based. Conditions: African green monkey, Vero E6 cells, read-out: cytotoxic concentration 50 (CC50). How it is done: It was performed to calculate the newly synthesised candidates’ minimum concentrations that cause 50% toxicity to the cells (CC50). First, the newly synthesised derivatives were dissolved in ddH2O with 10% DMSO and then diluted with Dulbecco's Modified Eagle's Medium (DMEM) to the desired concentrations. The MTT assay method was performed with minor changes using VERO-E6 cells (ready for the virus propagation) to be applied in other experiments. The complete methodology was elucidated in the Supplementary Data (SI2).
(§1) SI 2. MTT cytotoxicity assay.
(§2) The VERO-E6 cells were kept in 96 well-plates at 37°C in 5% CO2 for 24 h to be cultivated. The tested compounds were diluted with DMEM in HA plate in triplicates as mentioned before and then poured onto the prepared cells after washing twice by sterile 1x phosphate buffer saline (PBS). 24 h later, the cell monolayers were washed three times with sterile 1x PBS after removal of the supernatant followed by the addition of the MTT solution into each individual well (20 µl of 5 mg/ml stock solution) which was kept at 37°C for 4 h. The formed formazan crystals were dissolved using an acidified isopropanol (200 µl) and the absorbance of their solutions were recorded through a multi-well plate reader (λmax = 540 nm) against a reference wavelength (λmax= 620 nm). Finally, the cytotoxicity % of the tested compounds compared to the control cells (untreated cells) was calculated as follow:
(§3) % Cytotoxicity = (the absorbance of untreated cells − absorbance of treated cells) X 100 […]
(§4) SI 3. Inhibitory concentration 50 (IC50) determination.
(§5) The Vero-E6 cells (2.4×104) were kept overnight at 37°C in 5% CO2 inside 96-well tissue culture plates. 1x PBS solution was used to wash the cell monolayers for only one time which were then treated with different serial dilutions of the examined compounds together with a fixed dilution from the virus (hCoV-19/Egypt/NRC-03/2020 (Accession Number on GSAID: EPI_ISL_430820)) following TCID50 test and kept at RT for 1 h before starting incubation. Also, the cell monolayers were subjected to DMEM (100 μl) with different concentrations of the test samples and virus and left at 37°C for 72 h in a 5% CO2. Then, 4% paraformaldehyde (100 μl) was used for cell fixation (2 h) followed by the staining step with 0.1% crystal violet in distilled H2O (50 μl) at RT for 15 min. Absolute CH3OH (100 μl) was added to dissolve the crystal violet dye per well to measure the optical density of the produced color using Anthos Zenyth 200rt plate reader at 570 nm.1 The IC50 value for each tested compound which is corresponding to its minimum concentration required to reduce the virus infectivity by 50% in comparison to the virus control was calculated.
On the technique in general: Formazan colour is commonly taken as a measure of viable cells.

The test system of data set [2] is SARS-CoV-2 [hCoV-19/Egypt/NRC-03/2020]. The experiment in a line: SARS-CoV-2 inhibitory assay (IC50 determination, crystal violet) in Vero E6 cells. In kind it is cell-based. The protocol:
The IC50 for each examined compound (3a–g) which is equivalent to the minimum concentration to inhibit the virus infectivity by 50% compared to the virus control was calculated. The full methodology was depicted in the Supplementary Data (SI3).
as §1, §2, §3, §4, §5

Data set [3] addresses SARS-CoV-2 Mpro (Severe acute respiratory syndrome coronavirus 2, UniProt P0DTD1). The experiment in a line: SARS-CoV-2 Mpro assay (3CL Protease Assay Kit). In kind it is biochemical. An excerpt:
The Mpro activity was investigated using the 3CL Protease Assay Kit. The applied protocol and methodology were depicted in the Supplementary Data (SI4). Herein, the present assay was established to assess the newly synthesised candidates (3a–g) inhibitory effects on the SARS-CoV-2 Mpro enzyme as a recommended mechanism of action.
SI 4. Methodology and protocol of 3CL Protease (SARS-CoV-2) assay.
The 3CL Protease Assay Kit is designed to measure 3CL Protease activity for screening and profiling applications, in a homogeneous assay with no time-consuming washing steps. The kit comes in a convenient 96-well format, with purified 3CL Protease, fluorogenic substrate, and 3CL Protease assay buffer for 100 enzyme reactions. 3CL inhibitor GC376 is also included as a positive control.
Add 0.5 M DTT to 3CL Protease Assay Buffer so final DTT concentration is 1 mM. For example, add 10 μl of 0.5 M DTT to 5 ml assay buffer. (DTT should be added just before use. Prepare only enough DTT-containing buffer as required for the assay. Store the remaining assay buffer at - […]
2) Thaw 3CL Protease on ice. Upon first thaw, briefly spin tube containing enzyme to recover the full content of the tube. Aliquot 3CL Protease into single use aliquots. Store remaining undiluted enzyme in aliquots at -80°C. Note: 3CL Protease enzyme is sensitive to freeze/thaw cycles.
3) Dilute 3CL Protease in Assay buffer (with 1 mM DTT) at 3-5 ng/μl (90-150 ng per reaction).
4) Add 30 μl diluted 3CL Protease enzyme solution to wells designated as “Positive Control”, “Inhibitor Control” and “Test Sample”. Add 30 μl Assay buffer (with 1 mM DTT) to the “Blank” wells.
Component Positive Test Sample Inhibitor Blank
Assay Buffer (with DTT) − − − 30 μl […]
Inhibitor Buffer (no inhibitor) 10 μl − − 10 μl […]
5) Dilute 50 μg GC376 in 200 μl water to obtain a 500 μM solution. Aliquot and store remaining solution in aliquots at -80°C. Add 10 μl GC376 (500 μM) to the wells labeled “Inhibitor Control”.
6) Prepare the inhibitor solution.
The final concentration of DMSO in the assay should not exceed 1%. If the inhibitor compound is dissolved in DMSO, make a 100-fold higher concentration of the compound than the highest […]
concentration you want to test in DMSO. Then make a 20-fold dilution in 1X assay buffer (at this step the compound concentration is 5-fold higher than the final concentration).
If the inhibitor compound is dissolved in water, make a solution of the compound 5-fold higher than the final concentration in 3CL Protease assay buffer (with 1 mM DTT). For example, diluting 50 μg GC376 in 200 μl water (step 5) creates a 500 μM solution. Adding 10 ul to the assay (final volume 50 μl) results in a 100 μM final concentration.
7) Add 10 μl inhibitor to each well designated “Test Sample”. Add 10 μl 1X assay buffer or 5% DMSO (depending on which inhibitor solution is used) to “Blank” and “Positive Control” wells.
8) Preincubate enzyme with the inhibitor for 30 min at room temperature with slow shaking.
9) Dilute 5 mM 3CL Protease substrate 1:20 in assay buffer with DTT, to make a 250 μM solution.
Dilute only enough as is required for the assay.
10) Start reaction by adding 10 μl of the substrate solution to each well (Final concentration of the 3CL Protease substrate in a 50 μl reaction is 50 μM).
11) Incubate at room temperature for overnight. Seal the plate with the plate sealer. Measure the fluorescence intensity in a microtiter plate-reading fluorimeter capable of excitation at a wavelength 360 nm and detection of emission at a wavelength 460 nm. The fluorescence intensity can also be measured kinetically. “Blank” value is subtracted from all other values.
SI 5. Molecular dynamics (MD) simulations.
The MD simulations were carried out using Desmond simulation package of Schrödinger LLC.2 The NPT ensemble with the temperature 300 K and a pressure 1 bar was applied in all runs. The simulation length was 100 ns with a relaxation time 1 ps for the ligands. […]

On the set-up of data set [4]: method as in PMID 34641339. Conditions: single-dose administration; cited from earlier work.
Data set [5] relates to SARS-CoV-2. Set-up: method as in PMID 33352056. Conditions: in vitro assessment; read-out: EC50 against SARS-CoV-2; cited from earlier work.
Setting [6] is: Severe acute respiratory syndrome coronavirus 2, Vero C1008, read-out: IC50 (anti-SARS-CoV-2 activity).
Where [7] appears, read: Severe acute respiratory syndrome coronavirus 2, Vero C1008, Vero E6 cells, hCoV-19/Egypt/NRC-03/2020, read-out: IC50 (anti-SARS-CoV-2 activity).
Where [8] appears, read: 3CL Protease Assay Kit, read-out: SARS-CoV-2 Mpro IC50 (converted).
[9] abbreviates: values used for multiple linear regression, read-out: IC50 (Table 4, regression model; SARS-CoV-2 Mpro values) (converted).

In brackets after ≈: the same amount, converted by molar mass. Where two headings read alike, the source gives them in different places.

For the compound `Cc1ccc(C(=O)Nc2ncc([N+](=O)[O-])s2)cc1` [Compound 3a, 4-Methyl-N-(5-nitrothiazol-2-yl)benzamide], the CC50 at 24 h in data set [1] was determined as 1470 µg/mL (≈ 5.57 mM). Further, the half-maximal inhibitory concentration (IC50) in data set [2] (setting [6]) was 5.23 mM; in data set [2] (setting [7]), 1380 µg/mL; in data set [3] (setting [8]), 17.7 µM.

Regarding `O=C(CNC(=O)OCc1ccccc1)Nc1ncc([N+](=O)[O-])s1` [Compound 3b, Benzyl (2-((5-nitrothiazol-2-yl)amino)-2-oxoethyl)carbamate], the CC50 at 24 h in data set [1] is 1850 µg/mL (≈ 5.51 mM). For the same compound, the IC50 in data set [2] (setting [6]) was 0.519 mM; in data set [2] (setting [7]), 175 µg/mL; in data set [3] (setting [8]), 15.2 µM. Moreover, in data set [2] (Vero E6 cells), the “selectivity index (SI = CC50/IC50)” value turned out to be 10.

For the compound `C[C@H](NC(=O)OCc1ccccc1)C(=O)Nc1ncc([N+](=O)[O-])s1` [Compound 3c, Benzyl (S)-(1-((5-nitrothiazol-2-yl)amino)-1-oxopropan-2-yl)carbamate], the CC50 at 24 h in data set [1] came out at 2120 µg/mL (≈ 6.05 mM). In addition, the IC50 in data set [2] (setting [6]) is 1.99 mM; in data set [2] (setting [7]) it was 698 µg/mL; in data set [3] (setting [9]), 34 µM. Also, the “selectivity index (SI = CC50/IC50)” value in data set [2] (Vero E6 cells) was 3.

For the compound `CC(C)[C@H](NC(=O)OCc1ccccc1)C(=O)Nc1ncc([N+](=O)[O-])s1` [Compound 3d, Benzyl (S)-(3-methyl-1-((5-nitrothiazol-2-yl)amino)-1-oxobutan-2-yl)carbamate], the CC50 at 24 h in data set [1] was found to be 1200 µg/mL (≈ 3.18 mM). Besides, the IC50 in data set [2] (setting [6]) was over 1200 µg/mL; in data set [3] (setting [9]), 235 µM.

Consider `O=C(N[C@@H](Cc1ccccc1)C(=O)Nc1ncc([N+](=O)[O-])s1)OCc1ccccc1` [Compound 3e, Benzyl (S)-(1-((5-nitrothiazol-2-yl)amino)-1-oxo-3-phenylpropan-2-yl)carbamate], for which the CC50 at 24 h in data set [1] worked out at 2040 µg/mL (≈ 4.78 mM). For the same compound, the IC50 in data set [2] (setting [6]) is 3.01 mM; in data set [2] (setting [7]), 1280 µg/mL; in data set [3] (setting [9]), 38.9 µM.

For the compound `O=C(Nc1ncc([N+](=O)[O-])s1)[C@@H]1CCCN1C(=O)OCc1ccccc1` [Compound 3f, Benzyl (S)-2-((5-nitrothiazol-2-yl)carbamoyl)pyrrolidine-1-carboxylate], the CC50 at 24 h in data set [1] came to 2800 µg/mL (≈ 7.44 mM). In addition, the figures for the IC50 in data set [2] (setting [6]), in data set [2] (setting [7]) and in data set [3] (setting [9]) were 3.33 mM, 1250 µg/mL and 59.4 µM, respectively.

As for `O=C(N[C@@H](Cc1c[nH]c2ccccc12)C(=O)Nc1ncc([N+](=O)[O-])s1)OCc1ccccc1` [Compound 3g, Benzyl (S)-(3-(1H-indol-3-yl)-1-((5-nitrothiazol-2-yl)amino)-1-oxopropan-2-yl)carbamate], the CC50 at 24 h in data set [1] is 1630 µg/mL (≈ 3.49 mM). In addition, the IC50 was over 1630 µg/mL in data set [2] (setting [6]) and 110 µM in data set [3] (setting [9]).

In the case of `CC(C)C(=O)OC[C@H]1O[C@@H](n2ccc(NO)nc2=O)[C@H](O)[C@@H]1O` [molnupiravir], in data set [4], the “biological t1/2” value was 7 h and the “mean Cmax” value is given as 13.2 ng/mL.

For the compound `CC(=O)Oc1ccccc1C(=O)Nc1ncc([N+](=O)[O-])s1` [nitazoxanide], the EC50 in data set [5] was 2120 nM.
